A short description of series [1]: Dye penetration into skin layers, fluorescent microscopy of cryosectioned skin after passive permeation. How it is done: Human skin: The full thickness dermatomed (˜500 μm) human skin derived from the abdominal regions of female Caucasian cadavers were obtained from AlloSource (Englewood, Colo.) and stored at −80° C. Just before each experiment, the skin was allowed to thaw to room temperature and then used immediately for in vitro transport studies.
The receptor compartments were filled with 0.155 M phosphate buffered saline (pH 7.4, 5.1 mL), which was stirred at 600 rpm. The fluid in each receptor compartment was maintained at 37±0.5° C. by the use of a thermostatic water pump (Haake DC10, Karlsruhe, Germany) that circulated water through the jacket surrounding each main chamber. […] The skins were initially left in the Franz cells for 1 h in order to facilitate hydration of the membranes.
In all experiments, the donor compartment of the sampling port of each Franz cell was covered with a taught layer of Parafilm®, and the whole set up was roofed with aluminum foil to prevent the dye bleaching. Each permeation experiment was conducted in sextuplicate or quadruplicate (in case of time-dependency experiments).
At the end of the permeation experiment, the excess formulation was removed from the skin surface, skin sections were detached from the diffusion cells, washed three times with PBS, and dried gently with delicate task wipers (Kimwipes). The skins were frozen at −20° C., and 0.2×0.5 cm piece from the treated area was cut out and imbedded in optimal cutting temperature compound (OCT). A cryostat (Leica Cryostat CM 3050S, Wetzlar, Germany) was used to prepare the cross-section of full skin perpendicular to the skin surface. Nine to twelve vertical sections with a thickness of 20 μm each were obtained and stored at −4° C. till analyzed microscopically.
Fluorescent microscopy. Skin sections were subjected to both fluorescent and phase-contrast microscopy using Olympus CK40 microscope equipped with a UV source and filters for fluorescent measurement. Image capture and analysis were carried out using Olympus Microsuite™ B35V program. […] Images were recorded setting the camera integration time of 500 ms. The same parameters were used for imaging all samples and no corrections for the background fluorescence were made.
Quantitative analysis of dye penetration into skin was obtained by calculating pixel intensities from fluorescence measurements of skin sections. Image analysis was carried out for the epidermis (EP; consisting of stratum corneum and the viable epidermis), superficial dermis (SD) and lower dermis (LD) as schematically represented in FIG. 5. The superficial dermis is defined as the region measuring around 100 μm below the epidermis and the lower dermis is the remaining portion of the dermis below the superficial dermis.
H&E staining of the skin section (FIG. 5) was used to define the above layers for which quantitative analysis of dyes penetration was carried out.

Series [2] is described as follows: Solute binding efficiency of nanospheres (HPLC). The class given is physicochemical. How it is done:
The concentrations of the solutes were assayed by high-performance liquid chromatography (HPLC) using a Waters 2695 HPLC system equipped with UV/vis detector (Waters 2487, Dual 1 Absorbance Detector). Chromatographic separations were achieved using a RP-C18 column (Perkin-Elmer Brownlee Analytical C-18 column, 33 mm×4.6 mm) at 25° C. […] The mobile phase was delivered at a flow rate of 1 mL/min. […] Standard calibration samples were prepared at concentrations ranging from 1 to 50 μg/mL for all solutes. […] In addition, the specificity was determined by comparing the results obtained in the analysis of placebo supernatant, containing only nanospheres, with those obtained in the analysis of all standard solutions of the solutes and no interference from nanospheres was observed. To determine the solute binding efficiency, a predetermined aliquot of the purified nanosphere-solute complex suspension was withdrawn and freeze-dried, and the dry residue was accurately weighted before thoroughly dissolving in the extraction solvent. […] Solutes complexation by the nanospheres was characterized by the following ratio: [formula] Solutions of each solute in propylene glycol (PG) were prepared by stirring an excess of the molecule in PG at room temperature for 24 h. The samples were filtered through 0.22%μm PVDF syringe filters (Millipore, Bedford, Mass.), and the filtrates were used for all subsequent characterizations and experiments. For passive permeation experiments, the equal concentration (confirmed using RP-HPLC) of all solutes in both PG and nanospheres was achieved by subsequent dilution of either PG-solute solution with PG or NSP-solute formulation with PBS.

3 compounds from patent US8414871B2, “Controlled releases of actives in skin” (priority 2002, dated 2013) can be followed below.

`CCN(CC)c1ccc2nc3c4ccccc4c(=O)cc-3oc2c1` [NR, Nile Red]: in series [1], the “decrease of dye penetration from EP into the dermis” value is “about five fold”. In addition, the “decrease of fluorescence intensities from EP to LD” value in series [1] (24 hrs, NSP-dye formulations) is given as 2.5 fold. Also, in series [1] (female, human, 24 h, pH 7.4), the “PE (penetration effect), fluorescence in epidermis” value is 48.6±1.3 ABU. In series [2], the “final concentration of solutes in nanospheres solutions” value (from here on “final concentration of solutes”) is 200 µg/mL.
On to `COc1cc(/C=C/C(=O)CC(=O)/C=C/c2ccc(O)c(OC)c2)ccc1O` [curcumin], for which, in series [2], the “final concentration of solutes” value came to 190 µg/mL.
In the case of `CCCCCCCCCCCC(=O)Nc1ccc2c(c1)C(=O)OC21c2ccc(O)cc2Oc2cc(O)ccc21` [DAF, 5-Dodecanoylaminofluorescein], in series [1], the “change in dye penetration from EP to LD” value is on record as “increase”; the “decrease of dye penetration from EP into the dermis” value is “about two and a half fold”. Further, the “final concentration of solutes” value in series [2] worked out at 180 µg/mL.
